Tests used:
[1] = target: Tyrosine-protein kinase Srms (Homo sapiens) (UniProt Q9H3Y6); test: Selectivity interaction (KinomeScan (DiscoverX)) EUB0000618a SRMS; details: at 10 µM
[2] = target: T1, Tyrosine-protein kinase JAK3 (Homo sapiens) (UniProt P52333); test: Selectivity interaction (ActivX KiNativ screen (ex vivo kinase selectivity in human PBMCs)) EUB0001619a JAK3; format: cell-based; details: PBMC, at 1 µM
T1 sequence (whole entry): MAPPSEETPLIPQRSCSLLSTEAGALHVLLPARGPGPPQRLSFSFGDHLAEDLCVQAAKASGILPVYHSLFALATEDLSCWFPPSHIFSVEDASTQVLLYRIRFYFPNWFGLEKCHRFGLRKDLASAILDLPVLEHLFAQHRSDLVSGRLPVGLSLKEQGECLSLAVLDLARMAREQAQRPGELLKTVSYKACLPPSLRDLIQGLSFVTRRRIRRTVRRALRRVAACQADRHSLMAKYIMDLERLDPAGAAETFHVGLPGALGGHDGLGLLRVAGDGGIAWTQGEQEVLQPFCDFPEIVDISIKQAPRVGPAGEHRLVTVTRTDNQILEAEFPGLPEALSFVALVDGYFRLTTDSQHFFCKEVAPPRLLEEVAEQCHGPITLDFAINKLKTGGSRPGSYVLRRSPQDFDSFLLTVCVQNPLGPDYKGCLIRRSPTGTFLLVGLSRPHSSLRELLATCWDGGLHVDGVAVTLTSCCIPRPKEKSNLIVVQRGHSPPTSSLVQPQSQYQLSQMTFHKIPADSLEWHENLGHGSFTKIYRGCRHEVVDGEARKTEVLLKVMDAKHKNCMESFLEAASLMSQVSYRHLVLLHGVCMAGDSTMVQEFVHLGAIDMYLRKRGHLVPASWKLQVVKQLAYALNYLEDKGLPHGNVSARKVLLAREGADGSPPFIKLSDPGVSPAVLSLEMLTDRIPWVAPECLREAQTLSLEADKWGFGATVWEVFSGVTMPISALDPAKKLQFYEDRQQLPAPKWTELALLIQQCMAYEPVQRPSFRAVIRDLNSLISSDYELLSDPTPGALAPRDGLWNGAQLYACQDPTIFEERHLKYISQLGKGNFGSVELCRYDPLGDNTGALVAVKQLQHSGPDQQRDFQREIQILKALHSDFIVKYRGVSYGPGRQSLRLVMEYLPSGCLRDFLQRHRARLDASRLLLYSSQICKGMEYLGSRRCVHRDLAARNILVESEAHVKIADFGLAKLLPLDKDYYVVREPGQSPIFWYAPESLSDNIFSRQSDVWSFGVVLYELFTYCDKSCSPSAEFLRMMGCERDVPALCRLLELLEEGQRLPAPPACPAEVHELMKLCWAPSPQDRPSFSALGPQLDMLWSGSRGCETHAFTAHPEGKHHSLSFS

[3] = system: Epidermal growth factor receptor (Homo sapiens), P00533 [G719C]; details: at 10 µM
[4] = target: T2, Interleukin-1 receptor-associated kinase 4 (Homo sapiens) (UniProt Q9NWZ3); test: Selectivity interaction (KinomeScan (DiscoverX)) EUB0000595a IRAK4; details: at 10 µM
T2 sequence (whole entry): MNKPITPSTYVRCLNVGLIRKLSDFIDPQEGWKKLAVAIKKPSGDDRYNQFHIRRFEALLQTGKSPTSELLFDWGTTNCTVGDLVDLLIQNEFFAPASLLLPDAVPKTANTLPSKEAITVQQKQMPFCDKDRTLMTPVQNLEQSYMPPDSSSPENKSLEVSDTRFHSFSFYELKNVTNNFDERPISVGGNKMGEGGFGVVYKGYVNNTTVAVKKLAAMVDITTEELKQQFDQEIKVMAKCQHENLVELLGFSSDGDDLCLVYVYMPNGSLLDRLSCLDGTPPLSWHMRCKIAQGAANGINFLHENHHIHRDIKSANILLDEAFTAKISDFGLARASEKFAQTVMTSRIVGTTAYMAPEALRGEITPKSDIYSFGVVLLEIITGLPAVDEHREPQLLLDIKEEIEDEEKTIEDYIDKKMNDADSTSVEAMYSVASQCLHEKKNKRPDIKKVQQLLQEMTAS

[5] = target: Mitogen-activated protein kinase kinase kinase 11 (Homo sapiens) (UniProt Q16584); test: Selectivity interaction (Kinase panel (KiNativ target engagement assay in Jurkat cells)) EUB0001635a MAP3K11; format: cell-based; details: Selectivity number of off-targets 0.0, Selectivity number of targets 233.0, Source Knowledge https://www.sciencedirect.com/science/article/pii/S2451945619300674?via%3Dihub, at 1 µM
[6] = target: Casein kinase I isoform gamma-3 (Homo sapiens) (UniProt Q9Y6M4); test: Selectivity interaction (KinomeScan (DiscoverX)) EUB0001049a CSNK1G3; details: at 1 µM
Misshapen-like kinase 1 = Misshapen-like kinase 1 (Homo sapiens, UniProt Q8N4C8); test: Selectivity interaction (KinomeScan (DiscoverX)) EUB0000092b MINK1; details: at 10 µM
[7] = target: T3, MAP kinase-activated protein kinase 5 (Homo sapiens) (UniProt Q8IW41); test: Selectivity interaction (KinomeScan (DiscoverX)) EUB0000092b MAPKAPK5; details: at 10 µM
T3 sequence (whole entry): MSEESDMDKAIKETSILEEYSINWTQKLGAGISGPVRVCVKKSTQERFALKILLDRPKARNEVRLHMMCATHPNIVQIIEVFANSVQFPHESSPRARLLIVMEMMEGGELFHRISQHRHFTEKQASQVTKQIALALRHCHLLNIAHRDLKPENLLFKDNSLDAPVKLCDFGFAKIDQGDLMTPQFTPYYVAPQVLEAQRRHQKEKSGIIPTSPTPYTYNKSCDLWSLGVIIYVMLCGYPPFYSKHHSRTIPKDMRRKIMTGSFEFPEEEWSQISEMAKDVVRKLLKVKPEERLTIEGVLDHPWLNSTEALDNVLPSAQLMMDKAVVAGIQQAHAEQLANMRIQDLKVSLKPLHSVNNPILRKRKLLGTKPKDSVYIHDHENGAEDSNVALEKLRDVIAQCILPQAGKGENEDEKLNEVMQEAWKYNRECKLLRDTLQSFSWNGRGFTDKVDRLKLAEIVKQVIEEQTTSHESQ

Chain of Misshapen-like kinase 1 (Q8N4C8 whole entry, looked up): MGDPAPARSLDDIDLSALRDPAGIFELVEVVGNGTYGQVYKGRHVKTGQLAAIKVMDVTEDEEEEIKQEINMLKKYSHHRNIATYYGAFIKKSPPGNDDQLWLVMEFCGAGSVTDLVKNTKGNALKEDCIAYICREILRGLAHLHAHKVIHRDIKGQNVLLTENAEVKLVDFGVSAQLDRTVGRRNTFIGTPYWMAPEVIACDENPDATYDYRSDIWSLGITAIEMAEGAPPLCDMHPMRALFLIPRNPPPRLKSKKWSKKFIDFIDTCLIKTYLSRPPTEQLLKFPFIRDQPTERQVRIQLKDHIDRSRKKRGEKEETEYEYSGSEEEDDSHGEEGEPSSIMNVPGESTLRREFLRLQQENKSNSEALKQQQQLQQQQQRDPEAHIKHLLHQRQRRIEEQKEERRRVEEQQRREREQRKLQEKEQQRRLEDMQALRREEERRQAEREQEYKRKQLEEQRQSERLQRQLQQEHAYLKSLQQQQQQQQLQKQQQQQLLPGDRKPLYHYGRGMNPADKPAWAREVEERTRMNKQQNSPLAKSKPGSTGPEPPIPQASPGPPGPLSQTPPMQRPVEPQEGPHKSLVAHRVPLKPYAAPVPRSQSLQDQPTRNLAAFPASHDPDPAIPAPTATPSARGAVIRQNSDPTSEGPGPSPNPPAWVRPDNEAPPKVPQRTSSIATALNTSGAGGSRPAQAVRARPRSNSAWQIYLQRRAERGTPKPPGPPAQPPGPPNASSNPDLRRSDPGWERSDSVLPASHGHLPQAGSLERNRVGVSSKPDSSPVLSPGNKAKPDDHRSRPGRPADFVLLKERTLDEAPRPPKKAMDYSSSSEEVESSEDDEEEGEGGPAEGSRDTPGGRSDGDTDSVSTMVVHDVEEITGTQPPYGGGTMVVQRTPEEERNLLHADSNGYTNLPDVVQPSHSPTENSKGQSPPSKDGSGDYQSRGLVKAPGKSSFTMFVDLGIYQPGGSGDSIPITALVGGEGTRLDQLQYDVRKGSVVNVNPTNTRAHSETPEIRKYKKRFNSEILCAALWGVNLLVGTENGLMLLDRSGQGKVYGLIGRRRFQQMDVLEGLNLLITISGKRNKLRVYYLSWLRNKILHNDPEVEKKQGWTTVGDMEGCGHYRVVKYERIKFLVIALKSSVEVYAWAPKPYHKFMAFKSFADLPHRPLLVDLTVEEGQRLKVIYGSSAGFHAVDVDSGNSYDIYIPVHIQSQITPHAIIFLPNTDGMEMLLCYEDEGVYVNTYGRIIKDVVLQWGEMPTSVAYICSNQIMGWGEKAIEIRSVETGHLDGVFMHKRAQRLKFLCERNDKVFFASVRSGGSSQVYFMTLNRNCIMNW
Chain of Casein kinase I isoform gamma-3 (Homo sapiens) (Q9Y6M4 whole entry, looked up, canonical isoform): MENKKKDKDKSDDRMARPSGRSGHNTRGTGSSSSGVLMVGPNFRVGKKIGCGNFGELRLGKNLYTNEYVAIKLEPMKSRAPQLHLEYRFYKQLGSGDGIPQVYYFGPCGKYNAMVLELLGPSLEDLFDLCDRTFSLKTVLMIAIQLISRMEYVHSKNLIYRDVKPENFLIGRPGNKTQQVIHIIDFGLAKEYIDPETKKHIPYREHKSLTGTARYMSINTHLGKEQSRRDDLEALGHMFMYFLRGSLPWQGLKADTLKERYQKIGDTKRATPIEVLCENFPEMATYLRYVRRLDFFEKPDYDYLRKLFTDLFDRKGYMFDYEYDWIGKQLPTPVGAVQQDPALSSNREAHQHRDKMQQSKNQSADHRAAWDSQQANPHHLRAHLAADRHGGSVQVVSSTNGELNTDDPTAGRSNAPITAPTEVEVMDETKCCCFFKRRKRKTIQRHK
Chain of Epidermal growth factor receptor (Homo sapiens), P00533 [G719C] (P00533 whole entry G719C): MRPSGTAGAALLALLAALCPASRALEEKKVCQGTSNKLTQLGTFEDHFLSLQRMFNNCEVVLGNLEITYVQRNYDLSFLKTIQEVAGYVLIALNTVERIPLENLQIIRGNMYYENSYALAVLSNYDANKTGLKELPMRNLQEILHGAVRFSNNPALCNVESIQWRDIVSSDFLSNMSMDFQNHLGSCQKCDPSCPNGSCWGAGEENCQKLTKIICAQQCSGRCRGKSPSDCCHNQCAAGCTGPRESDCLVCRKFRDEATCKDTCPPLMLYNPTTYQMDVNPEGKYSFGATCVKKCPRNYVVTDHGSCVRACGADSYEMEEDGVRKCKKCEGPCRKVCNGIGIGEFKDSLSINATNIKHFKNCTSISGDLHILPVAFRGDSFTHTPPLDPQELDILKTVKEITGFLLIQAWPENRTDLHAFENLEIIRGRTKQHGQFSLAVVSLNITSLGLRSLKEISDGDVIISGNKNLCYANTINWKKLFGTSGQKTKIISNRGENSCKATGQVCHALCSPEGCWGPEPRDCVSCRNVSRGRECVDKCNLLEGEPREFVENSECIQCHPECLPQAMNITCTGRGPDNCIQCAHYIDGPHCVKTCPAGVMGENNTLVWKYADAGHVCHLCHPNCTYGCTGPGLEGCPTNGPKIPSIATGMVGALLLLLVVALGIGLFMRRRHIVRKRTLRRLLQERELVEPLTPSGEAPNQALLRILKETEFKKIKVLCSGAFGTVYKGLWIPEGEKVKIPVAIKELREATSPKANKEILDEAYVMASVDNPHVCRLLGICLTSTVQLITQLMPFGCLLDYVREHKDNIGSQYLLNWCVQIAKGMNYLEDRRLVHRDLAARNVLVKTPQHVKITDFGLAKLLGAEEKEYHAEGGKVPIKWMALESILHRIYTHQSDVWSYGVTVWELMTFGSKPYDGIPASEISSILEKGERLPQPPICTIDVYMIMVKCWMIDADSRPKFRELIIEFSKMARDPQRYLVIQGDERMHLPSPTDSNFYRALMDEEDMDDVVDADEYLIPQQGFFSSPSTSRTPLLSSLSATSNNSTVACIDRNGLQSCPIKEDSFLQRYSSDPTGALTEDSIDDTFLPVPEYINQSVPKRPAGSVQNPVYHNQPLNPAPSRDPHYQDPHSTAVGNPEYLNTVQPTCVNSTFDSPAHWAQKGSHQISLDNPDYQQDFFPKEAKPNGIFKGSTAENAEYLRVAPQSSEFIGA
Chain of Tyrosine-protein kinase Srms (Homo sapiens) (Q9H3Y6 whole entry): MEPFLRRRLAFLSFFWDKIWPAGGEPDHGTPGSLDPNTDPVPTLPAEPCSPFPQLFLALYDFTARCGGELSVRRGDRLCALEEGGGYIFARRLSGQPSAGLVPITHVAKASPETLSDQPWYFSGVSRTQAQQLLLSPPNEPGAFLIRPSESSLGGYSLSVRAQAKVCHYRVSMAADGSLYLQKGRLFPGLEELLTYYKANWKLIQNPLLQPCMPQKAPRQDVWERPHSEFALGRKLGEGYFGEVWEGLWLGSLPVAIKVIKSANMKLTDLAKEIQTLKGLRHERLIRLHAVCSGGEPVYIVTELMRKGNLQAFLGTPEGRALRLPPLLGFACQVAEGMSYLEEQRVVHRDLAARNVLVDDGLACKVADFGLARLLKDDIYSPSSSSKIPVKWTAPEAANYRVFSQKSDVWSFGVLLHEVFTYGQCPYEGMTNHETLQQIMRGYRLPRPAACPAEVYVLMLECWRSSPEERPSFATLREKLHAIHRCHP
Chain of Mitogen-activated protein kinase kinase kinase 11 (Homo sapiens) (Q16584 whole entry, looked up, canonical isoform): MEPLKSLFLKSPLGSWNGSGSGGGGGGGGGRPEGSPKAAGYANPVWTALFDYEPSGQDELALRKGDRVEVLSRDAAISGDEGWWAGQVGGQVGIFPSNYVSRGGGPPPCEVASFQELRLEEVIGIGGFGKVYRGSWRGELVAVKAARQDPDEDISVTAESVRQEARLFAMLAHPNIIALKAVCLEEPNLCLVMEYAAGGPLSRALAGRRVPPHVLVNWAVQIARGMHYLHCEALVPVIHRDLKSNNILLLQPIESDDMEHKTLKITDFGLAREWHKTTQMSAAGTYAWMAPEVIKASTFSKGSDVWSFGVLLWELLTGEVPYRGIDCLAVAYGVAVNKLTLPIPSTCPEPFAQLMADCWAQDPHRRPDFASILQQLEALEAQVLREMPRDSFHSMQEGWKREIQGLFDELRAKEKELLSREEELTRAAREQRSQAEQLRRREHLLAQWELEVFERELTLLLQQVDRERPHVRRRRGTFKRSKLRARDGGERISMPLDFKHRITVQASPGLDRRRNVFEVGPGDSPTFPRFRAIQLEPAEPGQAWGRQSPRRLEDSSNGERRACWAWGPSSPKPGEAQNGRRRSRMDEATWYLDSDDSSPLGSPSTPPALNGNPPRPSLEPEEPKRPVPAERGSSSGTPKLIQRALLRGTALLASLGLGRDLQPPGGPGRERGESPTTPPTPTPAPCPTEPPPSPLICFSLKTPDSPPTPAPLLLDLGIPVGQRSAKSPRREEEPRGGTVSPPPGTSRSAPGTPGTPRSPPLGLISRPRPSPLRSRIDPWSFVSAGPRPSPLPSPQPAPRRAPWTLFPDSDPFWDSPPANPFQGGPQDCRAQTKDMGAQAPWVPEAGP

## O[C@H]1CC[C@H](Nc2ncc3nc(Nc4c(F)cc(F)cc4F)n([C@H]4CCOC4)c3n2)CC1
[1]
  % of control: 89%

## N#Cc1cccc(-c2c[nH]c3ncnc(N4CCOCC4)c23)c1
[2]
  % of inhibition: 7%

## COCC(=O)NC/C=C/c1ccc2ncnc(Nc3ccc(Oc4ccc(C)nc4)c(C)c3)c2c1 [CP-724714]
[3]
  % of control: 0%
[4]
  % of control: 100%

## C=CC(=O)Nc1ccc(C(=O)Nc2[nH]nc3c2CN(C(=O)N[C@H](CN(C)C)c2ccccc2)C3(C)C)cc1
[5]
  % of engagement: -1.9%

## COc1cc(Nc2nc(C)cc(-c3cnn4nc(OC)ccc34)n2)cc(C(F)(F)F)c1
[6]
  % of control: 98%

## CCC(=O)N1CCN(c2ccc(-n3c(=O)ccc4cnc5ccc(-c6cnc7ccccc7c6)cc5c43)cc2C(F)(F)F)CC1
Misshapen-like kinase 1
  % of control: 19%
[7]
  % of control: 100%
